Assays:
Experiment in all cases: combination Emax (second highest fraction inhibited in the dose matrix, 72 h); higher = more inhibition; extreme values may be limits of the assay
[1] = tested on: NCI-H2141 (Small Cell Lung Carcinoma)
In short: (§1)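 Bliss excess equals the observed combination effect minus the expected value EA + EB − EA·EB, where EA and EB are the effects of each agent alone. Combination Emax is the second-highest inhibition within the matrix. Inhibition was scaled from CellTiter-Glo 2.0 luminescence, with 0 set by vehicle wells and 1 by blank wells, after 72 hours of two-drug dosing of cells plated in 1536-well plates.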

GI-ME-N (Neuroblastoma) = tested on: GI-ME-N (Neuroblastoma)
In short: as §1

[2] = tested on: BICR22 (Oral Cavity Carcinoma)
In short: as §1

[3] = tested on: TT2609-C02 (Thyroid Gland Carcinoma)
In short: as §1

[4] = tested on: ONS-76 (Other Solid Carcinomas)
In short: as §1

[5] = tested on: PANC-10-05 (Pancreatic Carcinoma)
In short: as §1

NY (Osteosarcoma) = tested on: NY (Osteosarcoma)
In short: as §1

[6] = tested on: NCI-H64 (Small Cell Lung Carcinoma)
In short: as §1

[7] = tested on: OS-RC-2 (Kidney Carcinoma)
In short: as §1

8-MG-BA (Glioblastoma) = tested on: 8-MG-BA (Glioblastoma)
In short: as §1

[8] = tested on: SK-MES-1 (Squamous Cell Lung Carcinoma)
In short: as §1

[9] = tested on: NCI-H1650 (Lung Adenocarcinoma)
In short: as §1

[10] = tested on: SK-MG-1 (Low Grade Glioma)
In short: as §1

ARH-77 (Non-Cancerous) = tested on: ARH-77 (Non-Cancerous)
In short: as §1

[11] = tested on: JSC-1 (B-Cell Non-Hodgkin's Lymphoma)
In short: as §1

[12] = tested on: ECC10 (Gastric Carcinoma)
In short: as §1

U-2-OS (Osteosarcoma) = tested on: U-2-OS (Osteosarcoma)
In short: as §1

NCI-H2591 (Mesothelioma) = tested on: NCI-H2591 (Mesothelioma)
In short: as §1

[13] = tested on: NCI-H1666 (Lung Adenocarcinoma)
In short: as §1

[14] = tested on: A549 (Lung Adenocarcinoma)
In short: as §1

| Compound | combination Emax [1] | combination Emax (GI-ME-N (Neuroblastoma)) | combination Emax [2] | combination Emax [3] | combination Emax [4] | combination Emax [5] | combination Emax (NY (Osteosarcoma)) | combination Emax [6] | combination Emax [7] | combination Emax (8-MG-BA (Glioblastoma)) | combination Emax [8] | combination Emax [9] | combination Emax [10] | combination Emax (ARH-77 (Non-Cancerous)) | combination Emax [11] | combination Emax [12] | combination Emax (U-2-OS (Osteosarcoma)) | combination Emax (NCI-H2591 (Mesothelioma)) | combination Emax [13] | combination Emax [14] |
| --- | --- | --- | --- | --- | --- | --- | --- | --- | --- | --- | --- | --- | --- | --- | --- | --- | --- | --- | --- | --- |
| COc1cccc(OCCCN)c1-c1cc(Nc2cnc(C#N)cn2)n[nH]1 [Prexasertib] + Cc1cc2ncnn2cc1Nc1ncc2c(n1)n(C1CCOCC1)c(=O)n2C [AZD7648] (first compound max 1 µM, 7x7, partner max 10 µM) | 0.57 | 0.563 | 0.761 | 0.276 | 0.862 | 0.522 | 0.674 | 0.846 | 0.469 | 0.951 | 0.804 | 0.55 | 0.826 | 0.994 | 1 | 0.671 | 0.913 | 0.415 | 0.334 | 0.63 |
| CCc1c2c(nc3ccc(O)cc13)-c1cc3c(c(=O)n1C2)COC(=O)[C@]3(O)CC [SN-38] + CN(C)CCCOc1ccc(-c2ccc3ncc4c(c3c2)n(C2CCOCC2)c(=O)n4C)cn1 [AZD0156] (first compound max 0.3 µM, 7x7, partner max 1 µM) | 0.451 | 0.345 | 0.907 | 0.441 | 0.805 | 0.73 | 0.855 | 0.407 | 0.443 | 0.975 | 0.804 | 0.501 | 0.833 | 0.992 | 0.983 | 0.945 | 0.0889 | 0.65 | 0.626 | 0.755 |
| Cc1c2c(nn1C)CSCc1cc(n(C)n1)CSc1cc(c3ccccc3c1)OCCCc1c(C(=O)O)n(C)c3c-2c(Cl)ccc13 [AZD5991] + CC1(C)CCC(CN2CCN(c3ccc(C(=O)NS(=O)(=O)c4ccc(NCC5CCOCC5)c([N+](=O)[O-])c4)c(Oc4cnc5[nH]ccc5c4)c3)CC2)=C(c2ccc(Cl)cc2)C1 [Venetoclax] (first compound max 1 µM, 7x7, partner max 1 µM) | 0.659 | 0.354 | 0.727 | 0.178 | 0.211 | 0.188 | 0.729 | 0.359 | 0.133 | 0.855 | 0.146 | 0.184 | 0.178 | 0.859 | 1 | 1 | 0.271 | 0.154 | 0.242 | 0.216 |
| COc1cccc2c1C(=O)c1c(O)c3c(c(O)c1C2=O)C[C@@](O)(C(=O)CO)C[C@@H]3O[C@H]1C[C@H](N)[C@H](O)[C@H](C)O1 [Doxorubicin] + Cc1cc2ncnn2cc1Nc1ncc2c(n1)n(C1CCOCC1)c(=O)n2C [AZD7648] (first compound max 1 µM, 7x7, partner max 10 µM) | 0.475 | 0.812 | 0.945 | 0.414 | 0.935 | 0.715 | 0.581 | 0.606 | 0.348 | 0.938 | 0.686 | 0.591 | 0.802 | 0.972 | 0.97 | 1 | 0.55 | 0.693 | 0.825 | 0.906 |
| Cc1cc2ncnn2cc1Nc1ncc2c(n1)n(C1CCOCC1)c(=O)n2C [AZD7648] + CCN(CCO)CCCOc1ccc2c(Nc3cc(CC(=O)Nc4cccc(F)c4)[nH]n3)ncnc2c1 [AZD2811] (first compound max 10 µM, 7x7, partner max 1 µM) | 0.358 | 0.207 | 0.605 | 0.244 | 0.398 | 0.43 | 0.242 | 0.596 | 0.287 | 0.358 | 0.373 | 0.287 | 0.461 | 0.54 | 0.486 | 0.908 | 0.229 | 0.37 | 0.381 | 0.718 |
| CC(=O)c1c(C)c2cnc(Nc3ccc(N4CCNCC4)cn3)nc2n(C2CCCC2)c1=O [Palbociclib] + CC1(C)CCC(CN2CCN(c3ccc(C(=O)NS(=O)(=O)c4ccc(NCC5CCOCC5)c([N+](=O)[O-])c4)c(Oc4cnc5[nH]ccc5c4)c3)CC2)=C(c2ccc(Cl)cc2)C1 [Venetoclax] (first compound max 10 µM, 7x7, partner max 1 µM) | 0.196 | 0.196 | 0.209 | 0.275 | 0.364 | 0.275 | 0.0868 | 0.17 | 0.155 | 0.366 | 0.208 | 0.131 | 0.282 | 0.725 | 0.506 | 0.915 | 0.142 | 0.237 | 0.177 | 0.64 |

From the supplement of paper PMC11061612
